According to patent US7217698B2, “Use of mannosamine derivatives for the stimulation of neurite growth” (Dompatent von Kreisler Selting Werner, priority 2001, dated 2007):

Test system: PC12 cells
Experiment: Neurite growth of NGF-stimulated PC12 cells with added ManNProp
Type: cell-based
Settings: two days, control NGF only
Experimental: It is known that stimulation with nerve growth factor (NGF) causes neuronal differentiation in PC12 cells. At an NGF concentration of 250 ng/ml and after three days of incubation, the PC12 cells already form a network of neurites. In order to examine whether the addition of ManNProp has an influence on the neurite formation by PC12 cells, the suitable neurite lengths for different incubation times were first titrated with different NGF concentrations. At an NGF concentration of 100 ng and an incubation time of two days, the cells formed neurites whose length were double the diameter of their cell. Under such conditions, the further course of the experiments was set up. The cells were plated with a constant number of cells on culture chambers which consisted of four chambers and were coated with collagen I (col.), poly-D-lysine (PDL) or laminin, and incubated under three different sets of conditions. Each variation was represented in duplicate. In the first chamber, the PC12 cells were incubated with 5 mM ManNProp, and in the second chamber, they were incubated with 100 ng of NGF. […] The first and second chambers served as a reference control for the cells under the influence of NGF and ManNProp. For each experiment, three culture chambers were sown in duplicate. After two days of incubation, the cells were fixed with paraformaldehyde, stained with crystal violet and washed with water. For evaluation, various segments were photographed and measured according to a random choice principle. For the evaluation, only the cells stimulated with NGF which served as a control and the cells stimulated with NGF plus ManNProp were considered. Each bar represents three experiments performed on three different days. The relative neurite length was established by CAPA (computer-assisted process analysis), and the data were integrated by means of Delta Graph. All experiments shown here were independently performed on different days. The values from Table 1 were additionally represented graphically in FIG. 3.

## CCC(=O)N[C@@H]1C(O)O[C@H](CO)[C@@H](O)[C@@H]1O (stereo partly drawn) [ManNProp, N-propanoylmannosamine]
Col. (collagen I) coating, 0.5 mM ManNProp + 100 ng NGF
  Enhancement of neurite growth in percent relative to the control: 3%
Col. (collagen I) coating, 5 mM ManNProp + 100 ng NGF
  Enhancement of neurite growth in percent relative to the control: 11%
Col. (collagen I) coating, 25 mM ManNProp + 100 ng NGF
  Enhancement of neurite growth in percent relative to the control: 20%
Laminin coating, 0.5 mM ManNProp + 100 ng NGF
  Enhancement of neurite growth in percent relative to the control: 28%
Laminin coating, 5 mM ManNProp + 100 ng NGF
  Enhancement of neurite growth in percent relative to the control: 70%
Laminin coating, 25 mM ManNProp + 100 ng NGF
  Enhancement of neurite growth in percent relative to the control: 59%
PDL (poly-D-lysine) coating, 0.5 mM ManNProp + 100 ng NGF
  Enhancement of neurite growth in percent relative to the control: 4%
PDL (poly-D-lysine) coating, 5 mM ManNProp + 100 ng NGF
  Enhancement of neurite growth in percent relative to the control: 5%
PDL (poly-D-lysine) coating, 25 mM ManNProp + 100 ng NGF
  Enhancement of neurite growth in percent relative to the control: 17%
